Results: PubChem BioAssay AID1259407 (Chemical Carcinogenesis Research Information System (CCRIS), 2018)
The source made the active and inactive calls. The rule behind the calls is not given here.

Tested on: CCRIS mutagenicity, Ames/micronucleus/aberration tests
Assay: CCRIS mutagenicity studies

SMILES: COc1cc(CNC(=O)CCCC/C=C/C(C)C)ccc1O
- mutagenic call (End Point: IN VITRO CHROMOSOMAL ABERRATIONS, Test System: HUMAN LYMPHOCYTES, Metabolic Activation: NONE): inactive; negative
- mutagenic call (End Point: IN VITRO CHROMOSOMAL ABERRATIONS, Test System: HUMAN LYMPHOCYTES, Metabolic Activation: RAT LIVER S-9, AROCLOR 1254): inactive; negative
- mutagenic call (End Point: IN VITRO CHROMOSOMAL ABERRATIONS, Test System: HUMAN LYMPHOCYTES, Metabolic Activation: S-9): inactive; negative
- mutagenic call (End Point: IN VITRO CHROMOSOMAL ABERRATIONS, Test System: HUMAN PERIPHERAL BLOOD LYMPHOCYTES, Metabolic Activation: NONE): inactive; negative
- mutagenic call (End Point: IN VITRO CHROMOSOMAL ABERRATIONS, Test System: HUMAN PERIPHERAL BLOOD LYMPHOCYTES, Metabolic Activation: RAT, LIVER, S-9, AROCLOR 1254): inactive; negative
- mutagenic call (End Point: IN VIVO MICRONUCLEUS, Test System: BONE MARROW ERYTHROCYTES, Species: MOUSE, Strain/Sex: CD-1/FEMALE, Route: GAVAGE): inactive; negative
- mutagenic call (End Point: IN VIVO MICRONUCLEUS, Test System: BONE MARROW ERYTHROCYTES, Species: MOUSE, Strain/Sex: CD-1/MALE, Route: GAVAGE): inactive; negative
- mutagenic call (End Point: IN VIVO MICRONUCLEUS, Test System: BONE MARROW POLYCHROMATIC ERYTHROCYTES, Species: MOUSE, Strain/Sex: CD-1/MALE, FEMALE, Route: GAVAGE): inactive; negative
- mutagenic call (Test System: AMES SALMONELLA TYPHIMURIUM, Strain/Indicator: TA97, Metabolic Activation: NONE, Method: PREINCUBATION (20 MIN)): inactive; negative
- mutagenic call (Test System: AMES SALMONELLA TYPHIMURIUM, Strain/Indicator: TA97, Metabolic Activation: S-9, Method: PREINCUBATION (20 MIN)): inactive; negative
- mutagenic call (Test System: AMES SALMONELLA TYPHIMURIUM, Strain/Indicator: TA98, Metabolic Activation: HAMSTER, LIVER, S-9, AROCLOR 1254, Method: STANDARD PLATE): inactive; negative
- mutagenic call (Test System: AMES SALMONELLA TYPHIMURIUM, Strain/Indicator: TA98, Metabolic Activation: NONE, Method: DIRECT PLATE): inactive; negative
- mutagenic call (Test System: AMES SALMONELLA TYPHIMURIUM, Strain/Indicator: TA98, Metabolic Activation: NONE, Method: PREINCUBATION): inactive; negative
- mutagenic call (Test System: AMES SALMONELLA TYPHIMURIUM, Strain/Indicator: TA98, Metabolic Activation: NONE, Method: PREINCUBATION (20 MIN)): inactive; negative
- mutagenic call (Test System: AMES SALMONELLA TYPHIMURIUM, Strain/Indicator: TA98, Metabolic Activation: RAT LIVER S-9, AROCLOR 1254, Method: PREINCUBATION): inactive; negative
- mutagenic call (Test System: AMES SALMONELLA TYPHIMURIUM, Strain/Indicator: TA98, Metabolic Activation: RAT LIVER S-9, AROCLOR 1254, Method: STANDARD PLATE): inactive; negative
- mutagenic call (Test System: AMES SALMONELLA TYPHIMURIUM, Strain/Indicator: TA98, Metabolic Activation: RAT, LIVER, S-9, AROCLOR 1254, Method: DIRECT PLATE): inactive; negative
- mutagenic call (Test System: AMES SALMONELLA TYPHIMURIUM, Strain/Indicator: TA98, Metabolic Activation: RAT, LIVER, S-9, AROCLOR 1254, Method: PREINCUBATION): inactive; negative
- mutagenic call (Test System: AMES SALMONELLA TYPHIMURIUM, Strain/Indicator: TA98, Metabolic Activation: RAT, LIVER, S-9, AROCLOR, Method: STANDARD PLATE): active; positive
- mutagenic call (Test System: AMES SALMONELLA TYPHIMURIUM, Strain/Indicator: TA98, Metabolic Activation: S-9, Method: PREINCUBATION (20 MIN)): inactive; negative
- mutagenic call (Test System: AMES SALMONELLA TYPHIMURIUM, Strain/Indicator: TA100, Metabolic Activation: HAMSTER, LIVER, S-9, AROCLOR 1254, Method: STANDARD PLATE): inactive; negative
- mutagenic call (Test System: AMES SALMONELLA TYPHIMURIUM, Strain/Indicator: TA100, Metabolic Activation: NONE, Method: DIRECT PLATE): inactive; negative
- mutagenic call (Test System: AMES SALMONELLA TYPHIMURIUM, Strain/Indicator: TA100, Metabolic Activation: NONE, Method: PREINCUBATION): inactive; negative
- mutagenic call (Test System: AMES SALMONELLA TYPHIMURIUM, Strain/Indicator: TA100, Metabolic Activation: NONE, Method: STANDARD PLATE): inactive; negative
- mutagenic call (Test System: AMES SALMONELLA TYPHIMURIUM, Strain/Indicator: TA100, Metabolic Activation: RAT LIVER S-9, AROCLOR 1254, Method: PREINCUBATION): inactive; negative
- mutagenic call (Test System: AMES SALMONELLA TYPHIMURIUM, Strain/Indicator: TA100, Metabolic Activation: RAT LIVER S-9, AROCLOR 1254, Method: STANDARD PLATE): inactive; negative
- mutagenic call (Test System: AMES SALMONELLA TYPHIMURIUM, Strain/Indicator: TA100, Metabolic Activation: RAT, LIVER, S-9, AROCLOR 1254, Method: DIRECT PLATE): inactive; negative
- mutagenic call (Test System: AMES SALMONELLA TYPHIMURIUM, Strain/Indicator: TA100, Metabolic Activation: RAT, LIVER, S-9, AROCLOR 1254, Method: PREINCUBATION): inactive; negative
- mutagenic call (Test System: AMES SALMONELLA TYPHIMURIUM, Strain/Indicator: TA100, Metabolic Activation: S-9 (0.25 ML), Method: PREINCUBATION (20 MIN)): inactive; negative
- mutagenic call (Test System: AMES SALMONELLA TYPHIMURIUM, Strain/Indicator: TA100, Metabolic Activation: S-9 (0.5 ML), Method: PREINCUBATION (60 MIN)): inactive; negative
- mutagenic call (Test System: AMES SALMONELLA TYPHIMURIUM, Strain/Indicator: TA1535, Metabolic Activation: HAMSTER, LIVER, S-9, AROCLOR 1254, Method: STANDARD PLATE): inactive; negative
- mutagenic call (Test System: AMES SALMONELLA TYPHIMURIUM, Strain/Indicator: TA1535, Metabolic Activation: NONE, Method: DIRECT PLATE): inactive; negative
- mutagenic call (Test System: AMES SALMONELLA TYPHIMURIUM, Strain/Indicator: TA1535, Metabolic Activation: NONE, Method: PREINCUBATION): inactive; negative
- mutagenic call (Test System: AMES SALMONELLA TYPHIMURIUM, Strain/Indicator: TA1535, Metabolic Activation: RAT LIVER S-9, AROCLOR 1254, Method: PREINCUBATION): inactive; negative
- mutagenic call (Test System: AMES SALMONELLA TYPHIMURIUM, Strain/Indicator: TA1535, Metabolic Activation: RAT LIVER S-9, AROCLOR 1254, Method: STANDARD PLATE): inactive; negative
- mutagenic call (Test System: AMES SALMONELLA TYPHIMURIUM, Strain/Indicator: TA1535, Metabolic Activation: RAT, LIVER, S-9, AROCLOR 1254, Method: DIRECT PLATE): inactive; negative
- mutagenic call (Test System: AMES SALMONELLA TYPHIMURIUM, Strain/Indicator: TA1535, Metabolic Activation: RAT, LIVER, S-9, AROCLOR 1254, Method: PREINCUBATION): inactive; negative
- mutagenic call (Test System: AMES SALMONELLA TYPHIMURIUM, Strain/Indicator: TA1537, Metabolic Activation: HAMSTER, LIVER, S-9, AROCLOR 1254, Method: STANDARD PLATE): inactive; negative
- mutagenic call (Test System: AMES SALMONELLA TYPHIMURIUM, Strain/Indicator: TA1537, Metabolic Activation: NONE, Method: DIRECT PLATE): inactive; negative
- mutagenic call (Test System: AMES SALMONELLA TYPHIMURIUM, Strain/Indicator: TA1537, Metabolic Activation: NONE, Method: PREINCUBATION): inactive; negative
- mutagenic call (Test System: AMES SALMONELLA TYPHIMURIUM, Strain/Indicator: TA1537, Metabolic Activation: NONE, Method: STANDARD PLATE): inactive; negative
- mutagenic call (Test System: AMES SALMONELLA TYPHIMURIUM, Strain/Indicator: TA1537, Metabolic Activation: RAT LIVER S-9, AROCLOR 1254, Method: PREINCUBATION): inactive; negative
- mutagenic call (Test System: AMES SALMONELLA TYPHIMURIUM, Strain/Indicator: TA1537, Metabolic Activation: RAT LIVER S-9, AROCLOR 1254, Method: STANDARD PLATE): inactive; negative
- mutagenic call (Test System: AMES SALMONELLA TYPHIMURIUM, Strain/Indicator: TA1537, Metabolic Activation: RAT, LIVER, S-9, AROCLOR 1254, Method: DIRECT PLATE): inactive; negative
- mutagenic call (Test System: AMES SALMONELLA TYPHIMURIUM, Strain/Indicator: TA1537, Metabolic Activation: RAT, LIVER, S-9, AROCLOR 1254, Method: PREINCUBATION): inactive; negative
- mutagenic call (Test System: AMES SALMONELLA TYPHIMURIUM, Strain/Indicator: TA1537, Metabolic Activation: RAT, LIVER, S-9, AROCLOR 1254, Method: STANDARD PLATE): inactive; negative
- mutagenic call (Test System: AMES SALMONELLA TYPHIMURIUM, Strain/Indicator: TA1538, Metabolic Activation: HAMSTER, LIVER, S-9, AROCLOR 1254, Method: STANDARD PLATE): inactive; negative
- mutagenic call (Test System: AMES SALMONELLA TYPHIMURIUM, Strain/Indicator: TA1538, Metabolic Activation: NONE, Method: STANDARD PLATE): inactive; negative
- mutagenic call (Test System: AMES SALMONELLA TYPHIMURIUM, Strain/Indicator: TA1538, Metabolic Activation: RAT, LIVER, S-9, AROCLOR 1254, Method: STANDARD PLATE): inactive; negative
- mutagenic call (Test System: CHINESE HAMSTER V-79, Strain/Indicator: V-79/8-AZAGUANINE, Metabolic Activation: NONE): inactive; negative
- mutagenic call (Test System: CHINESE HAMSTER V-79, Strain/Indicator: V-79/8-AZAGUANINE, Metabolic Activation: RAT, LIVER, S-9, AROCLOR): inactive; negative
- mutagenic call (Test System: E. COLI, Strain/Indicator: WP2UVRA, Metabolic Activation: NONE, Method: PREINCUBATION): inactive; negative
- mutagenic call (Test System: E. COLI, Strain/Indicator: WP2UVRA, Metabolic Activation: NONE, Method: STANDARD PLATE): inactive; negative
- mutagenic call (Test System: E. COLI, Strain/Indicator: WP2UVRA, Metabolic Activation: RAT LIVER S-9, AROCLOR 1254, Method: PREINCUBATION): inactive; negative
- mutagenic call (Test System: E. COLI, Strain/Indicator: WP2UVRA, Metabolic Activation: RAT LIVER S-9, AROCLOR 1254, Method: STANDARD PLATE): inactive; negative
- mutagenic call (Test System: E. COLI, Strain/Indicator: WP2UVRA, Metabolic Activation: RAT, LIVER, S-9, AROCLOR 1254, Method: DIRECT PLATE): inactive; negative
- mutagenic call (Test System: E. COLI, Strain/Indicator: WP2UVRA, Metabolic Activation: RAT, LIVER, S-9, AROCLOR 1254, Method: PREINCUBATION): inactive; negative
- mutagenic call (Test System: E.COLI, Strain/Indicator: WP2UVRA, Metabolic Activation: NONE, Method: DIRECT PLATE): inactive; negative
- mutagenic call (Test System: MOUSE LYMPHOMA, Strain/Indicator: L5178Y (TK+/TK-), Metabolic Activation: RAT, LIVER, S-9, AROCLOR 1254, Method: SUSPENSION/PLATE): active; positive
- mutagenic call (Test System: MOUSE LYMPHOMA, Strain/Indicator: L5178Y(TK+/-), Metabolic Activation: NONE, Method: SUSPENSION/PLATE (4 H EXPOSURE)): active; positive
- mutagenic call (Test System: MOUSE LYMPHOMA, Strain/Indicator: L5178Y(TK+/-), Metabolic Activation: NONE, Method: SUSPENSION/PLATE (24 H EXPOSURE)): inactive; negative
- mutagenic call (Test System: MOUSE LYMPHOMA, Strain/Indicator: L5178Y(TK+/-), Metabolic Activation: RAT LIVER S-9, AROCLOR 1254, Method: SUSPENSION/PLATE): active; positive
